Data on 22 molecules can be found in patent US12656356B2, “Pregabalin immunoassays” (ARK Diagnostics, Inc., priority 2015, dated 2026).

The structures appear in SMILES notation. “And” between values parts separate entries of the source, which are not always exact repeats. Equal entries are not always repeated.

One assay has as its system anti-pregabalin antibody. In words: Specificity of the homogeneous enzyme immunoassay (cross-reactivity). Particulars: compound at 200 μg/mL added to pooled pregabalin-free human urine; Siemens Viva-E System. It is filed as binding, rabbit. The source says: Antibodies obtained using any of the disclosed techniques are screened or purified not only for their ability to react with pregabalin, but for a low cross-reactivity with potential interfering substances. “Cross-reactivity” may be determined in a quantitative immunoassay by establishing a standard curve using known dilutions of the target analyte, pregabalin. […] The cross-reactivity is the apparent concentration divided by the actual concentration multiplied by 100. […] Furthermore, the cross-reactivity can be determined in the same type of immunoassay in which the antibody will ultimately be used.
An analyzer (instrument) useful to set up the assay is Siemens Viva-E. The Siemens Viva-E® System is an automated biochemistry analyzer used by medical and toxicology laboratories to process biological fluid specimens, such as urine, cerebrospinal fluid, and most commonly, blood. […] The enzyme conjugate activity decreases upon binding to the antibody. The enzyme conjugate, which is not bound to the antibody, catalyzes the oxidation of glucose-6-phosphate. The oxidation of glucose-6-phosphate is coupled with the reduction of NAD^+ to NADH, which can be measured at 340 nm. The change in the absorbance at 340 nm can be measured spectrophotometrically. The pregabalin concentration in a urine specimen can be measured in terms of G6PDH activity. The increase in the rate at 340 nm is due to the formation of NADH and is proportional to the enzyme conjugate activity. An assay curve can be generated using pregabalin spiked into pooled human pregabalin-free urine. The assay rate increases with increasing the concentration of free drug in the sample.
The specificity of the immunoassay was evaluated by adding a compound to pooled pregabalin-free human urine samples fortified with EDTA, and NaN3 preservative and testing the samples and determining the percent cross-reactivity. Separate stock solutions of each compound were prepared in methanol. […] The percentage cross-reactivity was calculated for each compound tested.

For another assay, the system named is antibody #10930. In kind it is binding, rabbit.

For `NCC(=O)O` [L-Glycine], the “% Crossreactivity” value in the assay with anti-pregabalin antibody stood at 0.005%. As for `CC[C@H](C)[C@H](N)C(=O)O` [L-Isoleucine], the “% Crossreactivity” value in the assay on anti-pregabalin antibody is listed as 0.008%. Consider `N[C@@H](Cc1c[nH]cn1)C(=O)O` [L-Histidine], for which the “% Crossreactivity” value with anti-pregabalin antibody amounted to 0.007%.

On to `NC(=O)C[C@H](N)C(=O)O` [L-Asparagine], for which the “% Crossreactivity” value with anti-pregabalin antibody is on record as 0.004%.

For `N[C@@H](CS)C(=O)O` [L-Cysteine], the “% Crossreactivity” value in the assay with anti-pregabalin antibody is on record as 0.005%.

Consider `CSCC[C@H](N)C(=O)O` [L-Methionine], for which, in the assay with anti-pregabalin antibody, the “% Crossreactivity” value is reported as 0.031%.

For `N[C@@H](CO)C(=O)O` [L-Serine], the “% Crossreactivity” value in the assay on anti-pregabalin antibody amounted to 0.005%. Turning to `CC(C)C[C@H](CN)CC(=O)O` [Pregabalin, (S)-3-(aminomethyl)-5-methylhexanoic acid], in the assay on antibody #10930, the “Reaction Rate (mA/min) Average of Duplicates” value was 432.5 mA/min and 344.0 mA/min and 381.5 mA/min and 407.0 mA/min. For the molecule `N[C@@H](Cc1c[nH]c2ccccc12)C(=O)O` [L-Tryptophan], the “% Crossreactivity” value with anti-pregabalin antibody is 0.006%. On to `N[C@@H](CCC(=O)O)C(=O)O` [L-Glutamic Acid], for which the “% Crossreactivity” value with anti-pregabalin antibody is given as 0.006%.

`N=C(N)NCCC[C@H](N)C(=O)O` [L-Arginine]: in the assay on anti-pregabalin antibody, the “% Crossreactivity” value is on record as 0.006%.

In the case of `CC(C)[C@H](N)C(=O)O` [L-Valine], the “% Crossreactivity” value in the assay with anti-pregabalin antibody is given as 0.006%. With `NCCCC[C@H](N)C(=O)O` [L-Lysine], the “% Crossreactivity” value in the assay on anti-pregabalin antibody stood at 0.001%. Turning to `CC(C)C[C@H](N)C(=O)O` [L-Leucine, L-leucine], the “% Crossreactivity” value with anti-pregabalin antibody is recorded as 0.038%.

Consider `C[C@H](N)C(=O)O` [L-Alanine], for which the “% Crossreactivity” value in the assay on anti-pregabalin antibody was found to be 0.004%.

Regarding `N[C@@H](Cc1ccc(O)cc1)C(=O)O` [L-Tyrosine], the “% Crossreactivity” value in the assay on anti-pregabalin antibody came to 0.004%. On the same count and under the same terms, with `NC(=O)CC[C@H](N)C(=O)O` [L-Glutamine] the figure was 0.004%; with `NCC1(CC(=O)O)CCCCC1` [Gabapentin], 0.019%; with `C[C@@H](O)[C@H](N)C(=O)O` [L-Threonine], 0.005%. Turning to `O=C(O)[C@@H]1CCCN1` [L-Proline], the “% Crossreactivity” value in the assay on anti-pregabalin antibody is 0.004%. With `N[C@@H](Cc1ccccc1)C(=O)O` [L-Phenylalanine], the “% Crossreactivity” value with anti-pregabalin antibody worked out at 0.006%.

In the case of `N[C@@H](CC(=O)O)C(=O)O` [L-Aspartic Acid], in the assay with anti-pregabalin antibody, the “% Crossreactivity” value is listed as 0.004%.
